Measurements published in the NIST ThermoML archive (doi:10.1016/j.jct.2009.10.007).

Assay: mn = molality of the nth substance listed, in mol/kg
Settings: 101 kPa, Liquid; for speed of sound: Sing-around technique in a fixed-path interferometer; for mass density: Vibrating tube method

CCCCn1cc[n+](C)c1.[Br-] [1-butyl-3-methylimidazolium bromide] + O
Settings | mass density, 298.15 K [kg/m3] | mass density, 303.15 K [kg/m3] | mass density, 308.15 K [kg/m3] | speed of sound, 298.15 K [m/s] | speed of sound, 303.15 K [m/s] | speed of sound, 308.15 K [m/s]
m1 = 0.0183 | 997.948 | 996.538 | 994.913 | – | 1511 | 1521.5
m1 = 0.0274 | 998.397 | 996.983 | 995.351 | – | 1511.8 | 1522.2
m1 = 0.0367 | 998.851 | 997.432 | 995.796 | – | 1512.6 | 1523
m1 = 0.0459 | 999.303 | 997.878 | 996.238 | – | 1513.4 | 1523.7
m1 = 0.0692 | 1000.44 | 999.002 | 997.347 | – | 1515.5 | 1525.6
m1 = 0.0932 | 1001.6 | 1000.15 | 998.48 | – | 1517.5 | 1527.4
m1 = 0.1164 | 1002.71 | 1001.24 | 999.565 | – | 1519.5 | 1529.3
m1 = 0.141 | 1003.88 | 1002.4 | 1000.71 | 1510.5 | 1521.7 | 1531.2
m1 = 0.1652 | 1005.02 | 1003.53 | 1001.83 | 1512.7 | 1523.7 | 1533.1
m1 = 0.1863 | 1006.01 | 1004.51 | 1002.79 | 1514.7 | 1525.5 | 1534.7
m1 = 0.2114 | 1007.19 | 1005.67 | 1003.94 | 1517 | 1527.6 | 1536.6
m1 = 0.2376 | 1008.4 | 1006.87 | 1005.13 | 1519.3 | 1529.7 | 1538.5
m1 = 0.2632 | 1009.58 | 1008.03 | 1006.28 | 1521.7 | 1531.8 | 1540.4
m1 = 0.2831 | 1010.49 | 1008.93 | 1007.17 | 1523.4 | 1533.4 | 1541.8
